Experimental data: paper PMC10720383, “Acetylcholinesterase Inhibition in Rats and Humans Following Acute Fenitrothion Exposure Predicted by Physiologically Based Kinetic Modeling-Facilitated Quantitative In Vitro to In Vivo Extrapolation” (Environmental Science & Technology, 2023)
Where “and” joins values, the source holds several entries; their conditions need not be identical. Equal values may be shown once. Read-outs that look alike come from different tables or passages of the source.

How the values were obtained:
CYP450s [1] = assay: in vitro; type: in vitro ADME; conditions: both sexes, Sprague-Dawley, rat, pH 7.4, rat liver microsomes, gender-mixed
Method: (§1) In vitro incubations were performed to obtain kinetic parameters for the CYP450s-catalyzed conversion of FNT to FNO and MNP using gender-mixed rat and human liver microsomes. For the PON1-dominated detoxification of FNO to MNP, in vitro incubations were conducted with gender-mixed liver microsomes or plasma from rats and humans. Sample extraction with diisopropyl ether was performed before UPLC-PDA analysis. More details on in vitro incubations, sample extraction, UPLC-PDA analysis, and calculation of kinetic parameters are provided in the Supporting Information.
(§2) Supplementary materials and methods
Chemical and biological materials […]
(§3) Human liver microsomes (pooled from 150 donors, mixed gender) and pooled male rat liver microsomes (Sprague-Dawley) were purchased from Corning (Amsterdam, The Netherlands). […] Human plasma (pooled from 25 donors, mixed gender) and rat plasma (Sprague-Dawley, mixed gender) were ordered from BioIVT (West Sussex, UK), and corresponding total protein concentrations were determined using BCA protein assay (Supporting Information). […]

CYP450s [2] = assay: in vitro; type: in vitro ADME, human; conditions: gender-mixed
Method: as §1, §2
Chemical and biological materials
FNT, acetylthiocholine iodide (ATC), 5,5’-dithiobis (2-nitrobenzoic acid) (DTNB), ethopropazine, tetraisopropyl pyrophosphoramide (iso-OMPA), perchloric acid (HClO4), trifluoroacetic acid (TFA), EDTA, MgCl2•6H2O, CaCl2•2H2O, NaH2PO4, Na2HPO4, Triton-X 100, Trizma® base and diisopropyl ether (DIPE) were ordered from Sigma-Aldrich (Amsterdam, The Netherlands). FNO was purchased from FUJIFILM Wako Pure Chemical Corporation (Tokyo, Japan), MNP and reduced nicotinamide adenine dinucleotide phosphate (NADPH) from Carbosynth Ltd. (Compton, UK). Acetonitrile (UPLC/MS grade), methanol (UPLC/MS grade) and ethanol (UPLC/MS grade) were ordered from Biosolve (Valkenswaard, The Netherlands). Chlorpyrifos-oxon was ordered from TRC-Canada (Toronto, Ontario, Canada). Ultrapure water was prepared using a Sartorius Arium® Pro ultrapure water system (Göttingen, Germany).
as §3, with “Netherlands). Pooled female rat liver microsomes (Sprague-Dawley) were ordered from Sigma-Aldrich (St. Louis, MO, USA).” for “Netherlands).”

erythrocyte AChE = conditions: rat, cited from earlier work

COP(=S)(OC)Oc1ccc([N+](=O)[O-])c(C)c1 [FNT, O,O-dimethyl O-4-nitro-m-tolyl phosphorothioate]
Km (CYP450s [1]; read-out: Km, FNT to FNO (CYP450s-catalyzed)): 8.28 µM
Km (CYP450s [1]; read-out: Km, FNT to MNP (CYP450s-catalyzed)): 20.5 µM
Km (CYP450s [2]; both sexes, human, pH 7.4, human liver microsomes, read-out: Km, FNT to FNO (CYP450s-catalyzed)): 21.6 µM
Km (CYP450s [2]; both sexes, human, pH 7.4, human liver microsomes, read-out: Km, FNT to MNP (CYP450s-catalyzed)): 4.08 µM
Km (CYP450s [2]; human liver microsomes, read-out: Km, FNT to MNP (CYP450s-catalyzed)): 4.08 µM
reported NOAEL (erythrocyte AChE; EFSA, 90 day rat study, body weight gain and erythrocyte and brain cholinesterase activity): 1.3 mg/kg BW and 1.30 mg/kg BW
reported NOAEL (erythrocyte AChE; US EPA, erythrocyte AChE inhibition after 2 weeks of dosing in a 92 week rat study): 0.25 mg/kg BW
